The numbers were not newly measured in US7517540B2, “Cranberry seed oil extract and compositions containing components thereof” (priority 1999, dated 2009), which cites them from elsewhere.

For data set [1], the system named is MDA-MB-435. Particulars: for IC50, inhibition of proliferation of MDA-MB-435: MDA-MB-435 (estrogen receptor-negative), combinations with tamoxifen 1:1; for Inhibition of proliferation, MDA-MB-435 (Table 5): alone, 1:1 or 1:1:1 combinations.
Data set [2] relates to MCF-7. The settings on record: for IC50, inhibition of proliferation of MCF-7: MCF-7 (estrogen receptor-positive), combinations with tamoxifen 1:1; for Inhibition of proliferation, MCF-7 (Table 5): alone, 1:1 or 1:1:1 combinations.
For data set [3] the following is noted: fed to hypercholesterolemic chicken.

Consider `CC(C)=CCC/C(C)=C/CC/C(C)=C/CC[C@]1(C)CCc2cc(O)cc(C)c2O1` [δ-Tocotrienol], for which, in data set [1], the “IC50, inhibition of proliferation of MDA-MB-435” value (“IC50, inhibition … of MDA-MB-435” for short) was 90 ± 3 µg/mL. In addition, the “IC50, inhibition of proliferation of MCF-7” value (shortened to “IC50, inhibition … of MCF-7”) in data set [2] is 2 ± 0.05 µg/mL. Moreover, the Hypocholesterolemic potency compared result in data set [3] was “more potently hypocholesterolemic than α-tocopherol, TRF, or α-tocotrienol”.

In the case of `CC(C)=CCC/C(C)=C/CC/C(C)=C/CC[C@]1(C)CCc2c(C)c(O)c(C)c(C)c2O1` [α-Tocotrienol], in data set [1], the “IC50, inhibition … of MDA-MB-435” value is 90 ± 3 µg/mL. The “IC50, inhibition … of MCF-7” value in data set [2] is 6 ± 0.3 µg/mL.

Turning to `CC(C)=CCC/C(C)=C/CC/C(C)=C/CC[C@]1(C)CCc2cc(O)c(C)c(C)c2O1` [γ-Tocotrienol], in data set [1], the “IC50, inhibition … of MDA-MB-435” value is 30 ± 2 µg/mL and the “Inhibition of proliferation, MDA-MB-435 (Table 5)” value is 30. In addition, in data set [2], the “IC50, inhibition … of MCF-7” value is 2 ± 0.1 µg/mL and the “Inhibition of proliferation, MCF-7 (Table 5)” value is reported as 2. In data set [3], the Hypocholesterolemic potency compared result is given as “more potently hypocholesterolemic than α-tocopherol, TRF, or α-tocotrienol”.

Consider `Cc1c(C)c2c(c(C)c1O)CC[C@@](C)(CCC[C@H](C)CCC[C@H](C)CCCC(C)C)O2` [α-Tocopherol], for which the “IC50, inhibition … of MDA-MB-435” value in data set [1] is greater than 1000 µg/mL. Besides, the “IC50, inhibition … of MCF-7” value in data set [2] is 125 ± 3 µg/mL.

For `COc1ccc(-c2cc(=O)c3c(OC)c(OC)c(OC)c(OC)c3o2)cc1` [Tangeretin only, Tangeretin], in data set [1], the “Inhibition of proliferation, MDA-MB-435 (Table 5)” value is 0.5. For the same compound, in data set [2], the “Inhibition of proliferation, MCF-7 (Table 5)” value is on record as 0.4.
